Experimental data reported in patent publication US11993640B2, “Treating inflammatory lung disease” (United States Government as represented by the Department …, priority 2019, dated 2024).
Read-outs that look alike come from different tables or passages of the source. Values belong to the compound of their own block, whether it stands above or below them. Non-standard residues stand in square brackets, D forms with d. Residues, ends and D or L forms follow the SMILES beside them. *: point of attachment. Phenylacetyl(2,3,4,5,6-F5) = O=C(Cc1c(F)c(F)c(F)c(F)c1F)*; Phe(F5) = N[C@@H](Cc1c(F)c(F)c(F)c(F)c1F)C(=O)O; hArg = N=C(N)NCCCC[C@H](N)C(=O)O; 12Ado = NCCCCCCCCCCCC(=O)O; Nle = CCCC[C@H](N)C(=O)O; Orn = NCCC[C@H](N)C(=O)O; Abu = CC[C@H](N)C(=O)O; PhAc = O=C(Cc1ccccc1)*

Tests used:
[1] = tested on: NCI-N87 cells; experiment: In vitro cell viability (CellTiter 96), stomach cancer N87; type: cell-based, human; details: 5 μM, 72 h; for Relative inhibitory potency, Stomach N87: relative to MIA602 = 1, Table 3A
Description: (§1) The inhibitory effects of the various synthesized GHRH antagonists were tested in cell proliferation assays in various human cancer cell lines including stomach cancer (KATOIII, N87), colon cancer (HT-29), urothelial cancer (J82, RT4), pancreatic cancer (PANC-1, CFPAC-1), prostatic cancer (PC3), breast cancer (MX-1, HCC1806), ovarian cancer (SK-OV-3, OVCAR-3) and lung cancer (HCC827, H460).
(§2) Cell culture. Human cancer cell lines including pancreatic (PANC-1 and CFPAC-1), lung (HCC827 and H460), stomach (NCI-N87 and KATOIII), urothelial (J82, RT4), prostatic (PC3), breast (MX-1 and HCC 1806), colorectal (HT-29), and ovarian (SK-OV-3 and OVCAR-3) were obtained from the American Type Culture Collection (ATCC) and cultured at 37° C. in a humidified 95% air/5% CO2 atmosphere in the medium recommended by ATCC.
(§3) In vitro cell viability. Cell viability was analyzed as follows: cancer cells including pancreatic (PANC-1 and CFPAC-1), lung (HCC827 and H460), stomach (NCI-N87 and KATOIII), urothelial (J82, RT4), prostatic (PC3) and breast (MX-1 and HCC 1806), colorectal (HT-29) and ovarian (SK-OV-3 and OVCAR-3) were grown on 96 well plates to ˜60% confluence, the cells were starved for 24 h in culture medium containing 0.5% FBS. Cells were then treated with GHRH antagonists MIA602 AVR compounds at concentrations of 1, 2.5 or 5 μM, or vehicle (0.1% DMSO) in quintuplicates for 72 hours. The medium was replaced every 48 hours. Cell viability was measured using CellTiter 96 aqueous one solution kit (Promega). Inhibitory effects of tested AVR compounds in comparison to that of MIA602 are presented as inhibitory potency.
(§4) Inhibitory effects of selected AVR compounds in comparison to that of MIA602 are presented as inhibitory potency (e.g., percentage of inhibition). […] The cell lines tested including lung cancer HCC827 (FIG. 2A), pancreatic cancer CFPAC-1 (FIG. 2B), stomach cancer N87 (FIG. 2C), colon cancer HT-29 (FIG. 2D), breast cancers MX-1 and HCC1806 (FIGS. 2E, F). Based on the results of cell proliferation assay after cancer cells were treated with antagonist at concentration of 5 μM for 72H, the relative inhibitory potency of AVR antagonists in comparison to MIA-602 is summarized in Table 3 A and B. Over 60 AVR compounds were tested in 12 cancer cell lines.
(§5) Based on the results of cell proliferation assay after cancer cells were treated with antagonist at concentration of 5 µM for 72H, * at concentration of 2 µM for 72 H.

[2] = molecular target: T1, membrane GHRH-receptors on human anterior pituitary cells (Homo sapiens, UniProt Q02643); experiment: Competitive receptor binding, displacement of 125I-[His1,Nle27]-hGH-RH(1-32)NH2 from human pituitary membranes
T1 construct: Human pituitary was purchased from the National Hormone and Peptide Program; tissue National Hormone and Peptide Program; host or cells: human pituitary membrane fractions
T1 sequence (Q02643 23-423): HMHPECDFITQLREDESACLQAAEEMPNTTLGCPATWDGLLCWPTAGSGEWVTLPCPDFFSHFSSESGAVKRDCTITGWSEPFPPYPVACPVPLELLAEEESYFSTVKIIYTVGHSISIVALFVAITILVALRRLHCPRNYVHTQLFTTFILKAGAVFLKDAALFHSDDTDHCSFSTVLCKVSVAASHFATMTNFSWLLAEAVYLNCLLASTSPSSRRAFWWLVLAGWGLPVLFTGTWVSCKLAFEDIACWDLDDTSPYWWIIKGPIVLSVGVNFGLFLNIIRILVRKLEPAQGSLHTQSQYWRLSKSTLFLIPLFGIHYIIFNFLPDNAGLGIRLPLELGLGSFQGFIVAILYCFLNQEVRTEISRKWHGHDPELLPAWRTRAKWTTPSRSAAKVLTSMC
Description: Receptor binding affinities in vitro. Preparation of human pituitary membrane fractions and receptor binding of analogs of GH-RH were performed (Halmos G, Rekasi Z, Szoke B, Schally A V. (1993) Receptor 3:87-97). Human pituitary was purchased from the National Hormone and Peptide Program. […] Relative affinities compared to hGH-RH(1-29)NH2 were calculated as the ratio of IC50 (dose causing 50% inhibition of specific binding to receptors) of the tested peptides to the IC50 of hGH-RH(1-29)NH2. The values were calculated from technical duplicate tubes.
Nineteen new AVR analogs of GHRH were tested in the receptor binding assay. Table 6 presents the IC50 values of GHRH antagonists to membrane GHRH-receptors binding on human anterior pituitary cells.

[3] = tested on: PANC-1 cells; experiment: In vitro cell viability, pancreatic cancer PANC-1; type: cell-based, human; details: 5 μM, 72 h; relative to MIA602 = 1; Table 3A
Description: as §1, §2, §3, §4

[4] = tested on: CFPAC-1 cells; experiment: In vitro cell viability, pancreatic cancer CFPAC-1; type: cell-based, human; details: 5 μM, 72 h; for Relative inhibitory potency, Pancreatic CFPAC-1: relative to MIA602 = 1, Table 3A
Procedure, shortened: (§6)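 Cells grown to ~60% confluence and serum-starved 24 h in 0.5% FBS, then exposed to antagonists at 5 μM (some at 2 μM) for 72 h in quintuplicate, with medium replaced every 48 h. Viability read by CellTiter 96 AQueous One (MTS). Values are inhibition relative to MIA602.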

[5] = tested on: HCC827 cells; experiment: In vitro cell viability, lung cancer HCC827; type: cell-based, human; details: 5 μM, 72 h; for Relative inhibitory potency, Lung HCC827: relative to MIA602 = 1, Table 3A
Procedure, shortened: as §6

[6] = tested on: KATOIII cells; experiment: In vitro cell viability, stomach cancer KATOIII; type: cell-based, human; details: 5 μM, 72 h; relative to MIA602 = 1; Table 3A
Procedure, shortened: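 Cells grown to ~60% confluence, starved 24 h in 0.5% FBS medium, then exposed to antagonists at 1, 2.5 or 5 μM or 0.1% DMSO vehicle for 72 h, in quintuplicate with medium renewed every 48 h. Viability by CellTiter 96 AQueous One; reported as inhibitory potency relative to MIA602.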

[7] = tested on: MX-1 cells; experiment: In vitro cell viability, breast cancer MX-1; type: cell-based, human; details: 5 μM, 72 h
Description: as §1, §2, §3, §4, §5

IC50 ([2]; human anterior pituitary membranes, mean of two to three determinations, read-out: IC50): 490 pM
Structure (SMILES): CCCC[C@H](NC(=O)[C@@H](NC(=O)[C@H](CC(=O)O)NC(=O)[C@H](CCC(N)=O)NC(=O)[C@H](CC(C)C)NC(=O)[C@H](CC(C)C)NC(=O)[C@H](CCCCN)NC(=O)[C@H](CCCNC(=N)N)NC(=O)[C@H](C)NC(=O)[C@H](CO)NC(=O)[C@H](CC(C)C)NC(=O)[C@H](CCC(N)=O)NC(=O)[C@H](CC)NC(=O)[C@H](CC(C)C)NC(=O)[C@@H](NC(=O)[C@H](CCCCN)NC(=O)[C@H](CCCNC(=N)N)NC(=O)[C@H](Cc1ccc(OC)cc1)NC(=O)[C@H](CCCCNC(=N)N)NC(=O)[C@H](C)NC(=O)[C@@H](NC(=O)[C@H](Cc1c(F)c(F)c(F)c(F)c1F)NC(=O)[C@@H](NC(=O)[C@H](C)NC(=O)[C@H](CC(=O)O)NC(=O)[C@@H](CCCNC(=N)N)NC(=O)[C@H](Cc1ccc(O)cc1)NC(=O)CCCCCCCCCCCNC(=O)Cc1c(F)c(F)c(F)c(F)c1F)[C@@H](C)CC)[C@@H](C)O)C(C)C)[C@@H](C)CC)C(=O)N[C@H](CCCNC(=N)N)C(=O)N[C@@H](CCCCNC(=N)N)C(=O)NC [AVR-235] ({Phenylacetyl(2,3,4,5,6-F5)-12Ado}-Y[dR]DAI[Phe(F5)]TA[hArg]Y(Me)RKVL[Abu]QLSARKLLQDI[Nle][dR][hArg]-NHMe)
Relative inhibitory potency, Stomach N87 [1]: 2.911
Relative inhibitory potency, Pancreatic Panc-1 [3]: 1.139
Relative inhibitory potency, Pancreatic CFPAC-1 [4]: 1.399
Relative inhibitory potency, Lung HCC827 [5]: 1.506
Relative inhibitory potency, Stomach KATOIII [6]: 1.220

Structure (SMILES): CCCC[C@H](NC(=O)[C@@H](NC(=O)[C@H](CC(=O)O)NC(=O)[C@H](CCC(N)=O)NC(=O)[C@H](CC(C)C)NC(=O)[C@H](CC(C)C)NC(=O)[C@H](CCCN)NC(=O)[C@H](Cc1c[nH]cn1)NC(=O)[C@H](C)NC(=O)[C@H](CO)NC(=O)[C@H](CC(C)C)NC(=O)[C@H](CCC(N)=O)NC(=O)[C@H](CC)NC(=O)[C@H](CC(C)C)NC(=O)[C@@H](NC(=O)[C@H](CCCN)NC(=O)[C@H](Cc1c[nH]cn1)NC(=O)[C@H](Cc1ccc(OC)cc1)NC(=O)[C@H](CCCCNC(=N)N)NC(=O)[C@H](C)NC(=O)[C@@H](NC(=O)[C@H](Cc1c(F)c(F)c(F)c(F)c1F)NC(=O)[C@@H](NC(=O)[C@H](C)NC(=O)[C@H](CC(=O)O)NC(=O)[C@@H](CCCNC(=N)N)NC(=O)[C@H](Cc1ccc(O)cc1)NC(=O)CCCCCCCCCCCNC(=O)Cc1ccccc1)[C@@H](C)CC)[C@@H](C)O)C(C)C)[C@@H](C)CC)C(=O)N[C@H](CCCNC(=N)N)C(=O)N[C@@H](CCCCNC(=N)N)C(N)=O [MIA-602, PhAC-Ada, Tyr D-Arg, Asp, Ala, Ile, 5FPhe, Thr, Ala, Har, Tyr(Me), His, Orn, Val, Leu, Abu, Gin, Leu, Ser, Ala, His, Orn, Leu, Leu, Gin, Asp, Ile, Nle, D-Arg, Har NH2, reference compound] ({PhAc-12Ado}-Y[dR]DAI[Phe(F5)]TA[hArg]Y(Me)H[Orn]VL[Abu]QLSAH[Orn]LLQDI[Nle][dR][hArg]-NH2)
In vitro relative inhibitory potency in comparison to MIA-602, NCI-N87 ([1]; Table 3B): 1
Relative inhibitory potency, Stomach N87 [1]: 1
IC50 [2]: 270 pM
Relative inhibitory potency, Pancreatic Panc-1 [3]: 1
In vitro relative inhibitory potency in comparison to MIA-602, CFPAC-1 ([4]; Table 3B): 1
Relative inhibitory potency, Pancreatic CFPAC-1 [4]: 1
In vitro relative inhibitory potency in comparison to MIA-602, MX-1 ([7]; Table 3B): 1
Relative inhibitory potency, Breast MX-1 ([7]; relative to MIA602 = 1, Table 3A): 1
In vitro relative inhibitory potency in comparison to MIA-602, HCC827 ([5]; Table 3B): 1
Relative inhibitory potency, Lung HCC827 [5]: 1
Relative inhibitory potency, Stomach KATOIII [6]: 1
